Measured values as given in patent publication US7192734B2, “Method of testing for the presence of microorganisms in a gaseous environment comprising hydrogen peroxide” (Millipore Corporation, priority 2002, dated 2007).

Assays:
microorganisms [1] = details: 1 m^3 air comprising 0.3 ppm sprayed hydrogen peroxide; TSA growth medium
Method: The surface of the growth medium was spread with an aqueous suspension comprising a predetermined number of microorganisms.
The TSA growth media were next placed in a temperature-controlled incubator to enable the growth of the colonies of microorganisms.

[2] = system: Miccrococus luteus ATCC9342; experiment: Tolerance in drastic conditions: 100 and 300 ppm hydrogen peroxide, 1% and 5% pyruvate in TSA (Example 5, part 3, Table I); assay type: cell-based, Miccrococcus luteus; details: hydrogen peroxide 300 ppm; pyruvate 5%
Excerpt: The conditions of Example 3 were reproduced using high concentrations of pyruvate (≧1%), in the presence or absence of hydrogen peroxide in the gaseous environment.
3/ Tolerance of Miccrococcus luteus in drastic conditions, when hydrogen peroxide is raised up to 300 ppm in the gaseous environment and the concentration of pyruvate is up to 5% by weight of agar growth medium.
Miccrococcus luteus growth has been monitored using respectively 100 ppm and 300 ppm of hydrogen peroxide, whereas the concentration of pyruvate by weight of TSA agar growth medium was 1% and 5%.

microorganisms [3] = experiment: Level of recovery of microorganisms on TSA medium with 1% sodium pyruvate, after impact of air comprising hydrogen peroxide vapour (Examples 3 and 4); assay type: cell-based; details: 1 m^3 air, 8 ppm hydrogen peroxide vapour; TSA + 1% by weight sodium pyruvate
Method: Example 1 was reproduced but with the use of 1 m^3 of air comprising 8 ppm (instead of 0.3 ppm) of hydrogen peroxide vapour (instead of sprayed hydrogen peroxide which was impacted, firstly, on a TSA growth medium, then, secondly, on the TSA medium to which 1% by weight of sodium pyruvate was added.
The results obtained are shown in FIG. 2, in which the x-axis represents the nature of the microorganisms and the y-axis represents the level of recovery.
Example 3 was reproduced by sampling 1 m^3 of air comprising 8 ppm of hydrogen peroxide which were impacted, firstly, on the same TSA growth medium to which 1% by weight of sodium pyruvate was added, not sterilized by the action of gamma radiation. Then, secondly, the same test was repeated but, this time, on the same growth medium sterilized by the action of gamma radiation.
The results obtained are shown in FIG. 3, in which the x-axis represents the nature of the microorganisms and the y-axis represents the level of recovery.

SMILES | effect on formation of colonies of microorganisms (microorganisms [1]) | growth of Miccrococcus luteus [2] | formation and counting of colonies of microorganisms (microorganisms [3])
OO [hydrogen peroxide] | inhibiting of the formation of the colonies of microorganisms |  | 
CC(=O)C(=O)[O-].[Na+] [sodium pyruvate] |  | enable growth of Miccrococcus luteus | permits the formation and counting of colonies of microorganisms
